Nine compounds from ChEMBL document CHEMBL1123591, “Synthetic analogues of tetrahydrobiopterin with cofactor activity for aromatic amino acid hydroxylases” (1987) can be followed below.

Each structure is given as a SMILES string.

One assay concerns dihydropteridine reductase. Kind of assay: Tested in isolated enzyme assay for its cofactor activity against dihydropteridine reductase expressed as relative velocity.
Take `CCCOCC1CNc2nc(N)nc(O)c2N1.Cl.Cl` (centres undefined): the Relative velocity is recorded as 212%. On the same count and under the same terms, to `CC1CNc2nc(N)[nH]c(=O)c2N1.Cl.Cl` (centres undefined) belongs 216%. `COCC1CNc2nc(N)nc(O)c2N1.Cl.Cl` (centres undefined) came in with a Relative velocity of 421%. Compound `CC(O)C(O)C1CNc2nc(N)nc(O)c2N1.Cl.Cl` (centres undefined) showed a Relative velocity of 100%.

With `CCOCC1CNc2nc(N)nc(O)c2N1.Cl.Cl` (centres undefined), the Relative velocity is 419%. Same read-out and setting: to `CC1(C)CNc2nc(N)nc(O)c2N1` belongs 239%; to `CC(C)(C)OCC1CNc2nc(N)nc(O)c2N1.Cl.Cl` (centres undefined), 222%; to `CC(C)OCC1CNc2nc(N)nc(O)c2N1.Cl.Cl` (centres undefined), 277%.

The test system of a further assay is dihydropteridine reductase. Nature of the assay: Tested in isolated enzyme assay for its cofactor actidihydropteridine reductaseity against dihydropteridine reductase expressed as relatidihydropteridine reductasee dihydropteridine reductaseelocity.
As for `CCCCOCC1CNc2nc(N)nc(O)c2N1.Cl.Cl` (centres undefined), the Relative velocity was found to be 283%.
